34 compounds from patent publication US12391686B2, “Compounds and uses thereof” (Foghorn Therapeutics Inc., priority 2019, dated 2025) can be followed below.

The structures appear in SMILES notation. Like-named read-outs stand apart in the source and are kept apart here.

This assay addresses T1, Nanoluciferase-BRD9 fusion protein (3×FLAG-NLuc-BRD9) in SYO-1 cells (Homo sapiens, UniProt Q9H8M2).
T1 construct: expressed in transfected cells; host or cells: SYO-1
T1 sequence (Q9H8M2 1-597): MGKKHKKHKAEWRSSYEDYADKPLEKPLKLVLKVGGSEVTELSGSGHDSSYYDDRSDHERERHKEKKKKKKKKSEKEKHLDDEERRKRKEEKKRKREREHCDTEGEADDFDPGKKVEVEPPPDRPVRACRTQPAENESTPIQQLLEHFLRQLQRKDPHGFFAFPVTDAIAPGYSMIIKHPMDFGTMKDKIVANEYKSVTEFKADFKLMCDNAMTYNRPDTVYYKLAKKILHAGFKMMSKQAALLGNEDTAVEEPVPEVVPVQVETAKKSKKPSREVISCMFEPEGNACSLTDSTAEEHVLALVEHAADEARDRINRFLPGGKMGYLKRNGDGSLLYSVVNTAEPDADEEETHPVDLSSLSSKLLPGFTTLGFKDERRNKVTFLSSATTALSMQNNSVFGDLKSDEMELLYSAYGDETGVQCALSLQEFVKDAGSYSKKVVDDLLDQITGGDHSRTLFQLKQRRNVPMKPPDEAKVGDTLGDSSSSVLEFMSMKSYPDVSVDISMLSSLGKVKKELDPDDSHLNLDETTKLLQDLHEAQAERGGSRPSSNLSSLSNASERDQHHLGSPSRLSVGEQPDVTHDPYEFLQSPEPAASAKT
The experiment in a line: SYO1 BRD9 NanoLuc Degradation Assay. The assay is classed as cell-based. The following applies: SYO-1 cells expressing 3×FLAG-NLuc-BRD9, 6 hours incubation, 1 μM top dose, read-out: SYO1 BRD9-NanoLuc degradation IC50. Here is the method:
Procedure: A stable SYO-1 cell line expressing 3×FLAG-NLuc-BRD9 was generated. On day 0 cells were seeded in 30 μL media into each well of 384-well cell culture plates. The seeding density was 8000 cells/well. On day 1, cells were treated with 30 nL DMSO or 30 nL of 3-fold serially DMSO-diluted compounds (10 points in duplicates with 1 μM as final top dose). Subsequently plates were incubated for 6 hours in a standard tissue culture incubator and equilibrated at room temperature for 15 minutes. Nanoluciferase activity was measured by adding 15 μL of freshly prepared Nano-Glo Luciferase Assay Reagent (Promega N1130), shaking the plates for 10 minutes and reading the bioluminescence using an EnVision reader.
Results: The Inhibition % was calculated using the following formula: % Inhibition=100×(LumHC−Lumsample)/(LumHC−LumLC). DMSO treated cells are employed as High Control (HC) and 1 μM of a known BRD9 degrader standard treated cells are employed as Low Control (LC).

As for `COc1cc(-c2cn(C)c(=O)c3cnc(N(C)C)cc23)cc(OC)c1CN1CC(c2ccc3c(c2)C(=O)N(C2CCC(=O)NC2=O)C3=O)C1` (stereo not shown) [Compound D132], the DC50 (Table 6B) was < 0.01 µM.

Regarding `COc1cc(-c2cn(C)c(=O)c3cnc(N4CC5(CC5)C4)cc23)cc(OC)c1CN1CC(CN2CCC3(CC2)CN(c2ccc4c(c2)C(=O)N(C2CCC(=O)NC2=O)C4)C3)C1` (stereo not shown) [Compound D201], under “Table 6C”, the DC50 is < 0.01 µM.

Turning to `COc1cc(-c2cn(C)c(=O)c3cnc(N(C)C)cc23)cc(OC)c1CN1CC(CN2CC3(CCN(c4ccc5c(c4)C(=O)N(C4CCC(=O)NC4=O)C5=O)C3)C2)C1` (stereo not shown) [Compound D49], the DC50 (Table 6B) was < 0.01 µM.

Regarding `COc1cc(-c2cn(C)c(=O)c3cnc(N(C)C)cc23)cc(OC)c1CN1CC(CCCN2CCN(c3ccc4c(c3)C(=O)N(C3CCC(=O)NC3=O)C4=O)CC2)C1` (stereo not shown) [Compound D44], for the setting “Table 6B”, the DC50 lay in the range of 0.01 to 0.1 µM.

With `COc1cc(-c2cn(C)c(=O)c3cnc(N(C)C)cc23)cc(OC)c1CN1CCN(C(C)(C)COc2ccc3c(c2)C(=O)N(C2CCC(=O)NC2=O)C3=O)CC1` (stereo not shown) [Compound D78], the DC50 (Table 6B) is < 0.01 µM.

Turning to `CCN(C)c1cc2c(-c3cc(OC)c(CN4CCN(CCC5CCN(c6ccc7c(c6)C(=O)N(C6CCC(=O)NC6=O)C7=O)CC5)CC4)c(OC)c3)cn(C)c(=O)c2cn1` (stereo not shown) [Compound D124], the DC50 (Table 6B) was < 0.01 µM.

Turning to `COc1cc(-c2cn(C)c(=O)c3cnc(N(C)C)cc23)cc(OC)c1CN(C)CC12CC(C(=O)NCCCCCNc3cccc4c3C(=O)N(C3CCC(=O)NC3=O)C4=O)(C1)C2` (stereo not shown) [Compound D35], the DC50 (Table 6B) is < 0.01 µM.

On to `CCOC1CC1c1cc2c(-c3cc(OC)c(CN4CCN(CCC5CCN(c6ccc7c(c6)C(=O)N(C6CCC(=O)NC6=O)C7)CC5)CC4)c(OC)c3)cn(C)c(=O)c2cn1` (stereo not shown) [Compound D203], for which the DC50 (Table 6C) is < 0.01 µM.

Take `CCc1cc(-c2cn(C)c(=O)c3cnc(N(C)C)cc23)cc(OC)c1CN1CCC(CN2CCC3(CC2)CC(Oc2ccc4c(c2)C(=O)N(C2CCC(=O)NC2=O)C4=O)C3)CC1` (stereo not shown) [Compound D174]: the DC50 (Table 6B) was < 0.01 µM.

Regarding `COc1cc(-c2cn(C)c(=O)c3cnc(N(C)C)cc23)cc(OC)c1CN1CCC(n2cc([C@H](C)Oc3ccc4c(c3)C(=O)N(C3CCC(=O)NC3=O)C4=O)nn2)CC1` (stereo partly shown) [Compound D87], the DC50 (Table 6B) is < 0.01 µM.

On to `COc1cc(-c2cn(C)c(=O)c3cnc(N(C)C)cc23)cc(OC)c1CN1CCC(C(C)N2CCC3(CC2)CC(Oc2ccc4c(c2)C(=O)N(C2CCC(=O)NC2=O)C4=O)C3)CC1` (stereo not shown) [Compound D75], for which, where the note is “Table 6B”, the DC50 is < 0.01 µM.

For the compound `COc1cc(-c2cn(C)c(=O)c3cnc(N(C)C)cc23)cc(OC)c1CN1CCC2(CCN(c3ccc4c(c3)C(=O)N(C3CCC(=O)NC3=O)C4=O)C2)C1` (stereo not shown) [Compound D90], the DC50 (Table 6B) is < 0.01 µM.

Regarding `C/C=C/n1cc(-c2cc(OC)c(CN3CCN(CCC4CCN(c5ccc6c(c5)C(=O)N(C5CCC(=O)NC5=O)C6=O)CC4)CC3)c(OC)c2)c2cc(N(C)C)ncc2c1=O` (stereo not shown) [Compound D139], under “Table 6B”, the DC50 was < 0.01 µM.

Consider `COc1cc(-c2cn(C)c(=O)c3cnc(N4CCC4)cc23)cc(OC)c1CN1CCC(CN2CCC3(CC2)CN(c2ccc4c(c2)C(=O)N(C2CCC(=O)NC2=O)C4=O)C3)CC1` (stereo not shown) [Compound D136], for which the DC50 (Table 6B) is < 0.01 µM.

For `COc1cc(-c2cn(C)c(=O)c3cnc(N(C)C)cc23)cc(OC)c1CN1CCN(C[C@@H](C)Oc2ccc3c(c2)C(=O)N(C2CCC(=O)NC2=O)C3=O)CC1` (stereo partly shown) [Compound D82], the DC50 (Table 6B) was < 0.01 µM.

On to `CN(C)c1cc2c(-c3ccc(N(C)C4CCN(c5ccc6c(c5)C(=O)N(C5CCC(=O)NC5=O)C6)CC4)cc3)cn(C)c(=O)c2cn1` (stereo not shown) [Compound D262], for which the DC50 (Table 6C) was < 0.01 µM.

Turning to `COc1cc(-c2cn(C)c(=O)c3cnc(N(C)C)cc23)cc(OC)c1CN1CC(Oc2ccc3c(c2)C(=O)N(C2CCC(=O)NC2=O)C3=O)C1` (stereo not shown) [Compound D98], the DC50 (Table 6B) was < 0.01 µM.

With `COc1cc(-c2cn(C)c(=O)c3cnc(N(C)C)cc23)cc(OC)c1CN1CCN(C[C@H](C)Oc2ccc3c(c2)C(=O)N(C2CCC(=O)NC2=O)C3=O)CC1` (stereo partly shown) [Compound D83], the DC50 (Table 6B) is < 0.01 µM.

`COc1cc(-c2cn(C)c(=O)c3cnc(N(C)C)cc23)cc(OC)c1CN1CCN(CCC2CCN(c3ccc4c(c3)C(=O)N(C3CCC(=O)NC3=O)C4)CC2)CC1` (stereo not shown) [Compound D120]: the DC50 (Table 6B) was < 0.01 µM.

As for `COc1cc(-c2cn(C)c(=O)c3cnc(N(C)C)cc23)cc(OC)c1CN1CC(C#Cc2ccc3c(c2)C(=O)N(C2CCC(=O)NC2=O)C3=O)C1` (stereo not shown) [Compound D89], for the setting “Table 6B”, the DC50 was < 0.01 µM.

For `COc1cc(-c2cn(C)c(=O)c3cnc(N(C)C)cc23)cc(OC)c1CN1CCN(c2cnn(C3CCC(=O)NC3=O)c2)CC1` (stereo not shown) [Compound D270], for the setting “Table 6C”, the DC50 fell in the range of 0.01 to 0.1 µM.

On to `COc1cc(-c2cn(C)c(=O)c3cnc(C4CC4)cc23)cc(OC)c1CN1CCC2(CC1)CN(c1ccc3c(c1)C(=O)N(C1CCC(=O)NC1=O)C3)C2` (stereo not shown) [Compound D226], for which the DC50 (Table 6C) is < 0.01 µM.

As to `COc1cc(-c2cn(C)c(=O)c3cnc(N(C)C)cc23)cc(OC)c1CN1CCN(CCC2CCN(c3ccc4c(c3)C(=O)N(C3CCC(=O)NC3=O)C4=O)CC2)CC1` (stereo not shown) [Compound D105], the DC50 (Table 6B) is < 0.01 µM.

In the case of `COc1cc(-c2cn(C)c(=O)c3cnc(N4CCC4)cc23)cc(OC)c1CN1CCC(c2ccc3c(c2)CN(C2CCC(=O)NC2=O)C3=O)CC1` (stereo not shown) [Compound D312], the DC50 (Table 6C) is < 0.01 µM.

Take `COc1cc(-c2cn(C)c(=O)c3cnc(C4CC4)cc23)cc(OC)c1CN1CC(Oc2ccc3c(c2)C(=O)N(C2CCC(=O)NC2=O)C3)C1` (stereo not shown) [Compound D300]: the DC50 (Table 6C) was < 0.01 µM.

For `CCn1cc(-c2cc(OC)c(CN3CCC(N4CCN(c5ccc6c(c5)CN(C5CCC(=O)NC5=O)C6=O)CC4)CC3)c(OC)c2)c2cc(N3CCC3)ncc2c1=O` (stereo not shown) [Compound D123], the DC50 (Table 6B) was < 0.01 µM.

Take `COc1cc(-c2cn(C)c(=O)c3cnc(N(C)C)cc23)cc(Cl)c1CN1CCC(C(=O)N2CCC3(CC2)CC(Oc2ccc4c(c2)C(=O)N(C2CCC(=O)NC2=O)C4=O)C3)CC1` (stereo not shown) [Compound D102]: the DC50 (Table 6B) is < 0.01 µM.

Regarding `COc1cc(-c2cn(C)c(=O)c3cnc(N4CCC4)cc23)cc(OC)c1CN1[C@H](C)CN(CCC2CCN(c3ccc4c(c3)C(=O)N(C3CCC(=O)NC3=O)C4=O)CC2)C[C@H]1C` (stereo partly shown) [Compound D222], the DC50 (Table 6C) is < 0.01 µM.

For `CNc1cc2c(=O)n(C)cc(-c3cc(OC)c(CN(C)CC45CC(C(=O)NCCCCCOc6ccc7c(c6)C(=O)N(C6CCC(=O)NC6=O)C7=O)(C4)C5)c(OC)c3)c2cn1` (stereo not shown) [Compound D173], the DC50 (Table 6B) is < 0.01 µM.

With `COc1cc(-c2cn(C)c(=O)c3cnc(N(C)C)cc23)cc(OC)c1CN1CC(N(C)c2ccc3c(c2)C(=O)N(C2CCC(=O)NC2=O)C3=O)C1` (stereo not shown) [Compound D268], under “Table 6C”, the DC50 was < 0.01 µM.

As for `COc1cc(-c2cn(C)c(=O)c3cnc(N(C)C)cc23)cc(Cl)c1C(=O)N1CCN(CCC2CCN(c3ccc4c(c3)CN(C3CCC(=O)NC3=O)C4=O)CC2)CC1` (stereo not shown) [Compound D189], for the setting “Table 6C”, the DC50 was < 0.01 µM.

For the compound `COc1cc(-c2cn(C)c(=O)c3cnc(N(C)C)cc23)cc(OC)c1CN1CCC(c2ccc3c(c2)C(=O)N(C2CCC(=O)NC2=O)C3=O)CC1` (stereo not shown) [Compound D104], the DC50 (Table 6B) was < 0.01 µM.

In the case of `COc1cc2c(-c3cc(OC)c(CN4CCN(CCC5CCN(c6ccc7c(c6)CN(C6CCC(=O)NC6=O)C7=O)CC5)CC4)c(OC)c3)cn(C)c(=O)c2cn1` (stereo not shown) [Compound D224], for the setting “Table 6C”, the DC50 was < 0.01 µM.

Take `CNc1cc2c(=O)n(C)cc(-c3cc(OC)c(CN(C)CC45CC(C(=O)NCCCCCNc6cccc7c6C(=O)N(C6CCC(=O)NC6=O)C7=O)(C4)C5)c(OC)c3)c2cn1` (stereo not shown) [Compound D172]: where the note is “Table 6B”, the DC50 is 0.01 to 0.1 µM.
